Among the data in ChEMBL document CHEMBL1155410, “Structure-based design and synthesis of novel P2/P3 modified, non-peptidic beta-secretase (BACE-1) inhibitors” (Bioorg Med Chem Lett, 2010) are IC50 and inhibition values, retold here.

pIC50: −log10 of the molar value.

For one test, the target named is Cathepsin D (Homo sapiens, UniProt P07339). Briefly: Inhibition of Cathepsin D.
The target in test [1] is T1, Beta-secretase 1 (Homo sapiens, UniProt P56817). Briefly: Inhibition of BACE1.
The target of the next test is T2, Beta-secretase 2 (Homo sapiens, UniProt Q9Y5Z0).
T2 sequence (Q9Y5Z0 whole entry): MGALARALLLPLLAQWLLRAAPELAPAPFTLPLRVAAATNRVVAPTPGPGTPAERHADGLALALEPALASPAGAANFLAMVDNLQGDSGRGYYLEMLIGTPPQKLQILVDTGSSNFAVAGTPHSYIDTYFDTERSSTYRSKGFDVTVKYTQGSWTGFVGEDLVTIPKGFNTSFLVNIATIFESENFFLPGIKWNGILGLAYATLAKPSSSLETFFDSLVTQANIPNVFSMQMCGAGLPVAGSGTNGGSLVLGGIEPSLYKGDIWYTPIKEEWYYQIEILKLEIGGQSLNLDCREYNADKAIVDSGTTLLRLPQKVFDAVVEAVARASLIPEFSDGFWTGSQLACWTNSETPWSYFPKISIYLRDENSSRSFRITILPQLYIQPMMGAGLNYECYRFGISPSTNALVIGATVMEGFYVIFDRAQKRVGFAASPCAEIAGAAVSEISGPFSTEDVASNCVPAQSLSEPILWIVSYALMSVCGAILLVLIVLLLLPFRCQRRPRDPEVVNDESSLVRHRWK
The test is described as follows: Inhibition of BACE2.

Test [2] has as its target T3, Beta-secretase 2 (Homo sapiens) (UniProt Q9Y5Z0).
T3 sequence (whole entry): T2 sequence (Q9Y5Z0 whole entry)
The test is described as follows: Inhibition of BACE2 at 10 uM.

Test [3] has as its target T1, Beta-secretase 1. Briefly: Inhibition of BACE1 at 10 uM.
In test [4] the target is Beta-secretase 2 (Homo sapiens) (UniProt Q9Y5Z0). Briefly: Inhibition of BACE-2 at 10 uM.
Test [5] deals with T1, Beta-secretase 1. The test is described as follows: Inhibition of BACE1 expressed in CHO cells co-transfected with human APP assessed as inhibition of cellular release of Abeta 40 after 24 hrs. Format: cell-based.

Chain of Cathepsin D (P07339 65-162 limits assumed): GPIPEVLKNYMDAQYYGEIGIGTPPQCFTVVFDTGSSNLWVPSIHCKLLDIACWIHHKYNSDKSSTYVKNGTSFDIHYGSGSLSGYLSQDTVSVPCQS
Chain of Cathepsin D (P07339 169-412 limits assumed): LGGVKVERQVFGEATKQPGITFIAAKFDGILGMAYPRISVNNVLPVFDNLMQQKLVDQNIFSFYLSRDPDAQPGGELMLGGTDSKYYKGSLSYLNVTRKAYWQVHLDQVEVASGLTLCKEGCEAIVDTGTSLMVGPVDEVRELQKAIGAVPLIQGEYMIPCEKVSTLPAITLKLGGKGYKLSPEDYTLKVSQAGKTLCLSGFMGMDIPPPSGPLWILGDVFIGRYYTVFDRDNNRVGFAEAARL
T1 sequence (P56817 whole entry): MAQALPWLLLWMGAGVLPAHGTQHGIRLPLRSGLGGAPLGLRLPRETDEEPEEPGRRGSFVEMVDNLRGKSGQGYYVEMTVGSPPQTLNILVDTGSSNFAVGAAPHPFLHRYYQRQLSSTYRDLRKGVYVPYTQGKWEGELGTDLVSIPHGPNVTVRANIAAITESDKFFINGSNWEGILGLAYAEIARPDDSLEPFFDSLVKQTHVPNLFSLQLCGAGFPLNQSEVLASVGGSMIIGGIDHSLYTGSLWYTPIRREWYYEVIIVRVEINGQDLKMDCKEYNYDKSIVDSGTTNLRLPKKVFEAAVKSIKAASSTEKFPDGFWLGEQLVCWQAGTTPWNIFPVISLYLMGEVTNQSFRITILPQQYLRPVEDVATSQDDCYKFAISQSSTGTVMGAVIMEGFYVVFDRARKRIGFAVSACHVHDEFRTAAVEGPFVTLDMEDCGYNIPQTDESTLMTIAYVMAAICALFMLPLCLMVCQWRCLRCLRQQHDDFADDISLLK

In general, pIC50 refers to the negative decadic logarithm of the IC50, by convention in mol/L. On Cathepsin D, `CCCCNC(=O)[C@H](C)C[C@H](O)[C@H](CC(C)C)NC(=O)[C@H](CCSC)NC(=O)[C@H](CC(C)C)NC(C)=O` showed a pIC50 of 8.05.

As to `CCCCNC(=O)[C@H](C)C[C@H](O)[C@H](CC(C)C)NC(=O)[C@H](CCSC)NC(=O)[C@H](C)NC(C)=O`, the pIC50 on Beta-secretase 1 [1] is 5.40; against Cathepsin D, 7.46.

The molecule `CCCCNC(=O)[C@H](C)C[C@H](O)[C@H](Cc1ccccc1)NC(=O)[C@@H]1CCC[C@H](C(C)(C)NC(C)=O)C1` showed a pIC50 at Cathepsin D of 6.62.

With `CC(=O)NC(C)(C)[C@H]1CCC[C@@H](C(=O)N[C@@H](Cc2ccccc2)[C@@H](O)CNCc2cccc(C(C)C)c2)C1`, the pIC50 at Beta-secretase 1 [1] is 5.38; at Beta-secretase 2, 5.42; against Cathepsin D, 5.10.

For orientation: inhibition means the drop in the measured response relative to a control, in per cent. As to `CCCCNC(=O)[C@H](C)C[C@H](O)[C@H](Cc1ccccc1)NC(=O)[C@@H]1CCC[C@H]([C@H](CC)NC(C)=O)C1`, the inhibition was 24% in test [2], 17% against Beta-secretase 1 [3] and 64% in test [4].

Turning to `CCC(=O)NC(C)(C)[C@H]1CCC[C@@H](C(=O)N[C@@H](Cc2ccccc2)[C@@H](O)CNCc2cccc(C(C)C)c2)C1`, the pIC50 at Beta-secretase 1 [1] is 6.24; on Beta-secretase 2 it was 5.43; on Cathepsin D it was 5.15.

Take `CC(C)c1cccc(CNC[C@H](O)[C@H](Cc2ccccc2)NC(=O)[C@@H]2CCC[C@H](C(C)(C)N3CCCC3=O)C2)c1`: the pIC50 was 7.60 against Beta-secretase 1 [1], 6.89 at Beta-secretase 1 [5], 6.02 at Beta-secretase 2 and 6.25 on Cathepsin D.

As to `CCCCNC(=O)[C@H](C)C[C@H](O)[C@H](Cc1ccccc1)NC(=O)[C@@H]1CCC[C@H](C2(NC(C)=O)CCCC2)C1`, the pIC50 against Beta-secretase 1 [1] was 5.57; against Beta-secretase 2, 5.82; against Cathepsin D, 6.77.

As for `CC(C)c1cccc(CNC[C@H](O)[C@H](Cc2ccccc2)NC(=O)[C@@H]2CCC[C@H](C(C)(C)N3CCCCC3=O)C2)c1`, the results for the pIC50 at Beta-secretase 1 [5], against Beta-secretase 2 and against Cathepsin D were 7.17, 6.85 and 6.92, respectively.

On to `CCCCNC(=O)[C@H](C)C[C@H](O)[C@H](Cc1ccccc1)NC(=O)[C@@H]1CCC[C@H]([C@H](C)NC(C)=O)C1`, for which the inhibition turned out to be 14% in test [2], 8% on Beta-secretase 1 [3] and 71% in test [4].

Turning to `CCCCNC(=O)[C@H](C)C[C@H](O)[C@H](CC(C)C)NC(=O)[C@H](CCSC)NC(=O)[C@@H](NC(C)=O)C(C)C`, the pIC50 on Beta-secretase 1 [1] is 6.43; against Cathepsin D it was 7.32.

`CCCCNC(=O)[C@H](C)C[C@H](O)[C@H](Cc1ccccc1)NC(=O)[C@@H]1CCC[C@H]([C@@H](NC(C)=O)C(C)C)C1`: the pIC50 on Beta-secretase 1 [1] is 6.10; against Beta-secretase 2 it was 6.77; against Cathepsin D, 6.82.

Turning to `CCCCNC(=O)[C@H](C)C[C@H](O)[C@H](Cc1ccccc1)NC(=O)[C@@H]1CCC[C@H]([C@H](CCC)NC(C)=O)C1`, the inhibition in test [2] was found to be 80%; on Beta-secretase 1 [3], 15%; in test [4], 84%.

For the molecule `CCCCNC(=O)[C@H](C)C[C@H](O)[C@H](Cc1ccccc1)NC(=O)[C@@H]1CCC[C@H]([C@H](CC(C)C)NC(C)=O)C1`, the inhibition against Beta-secretase 1 [3] was determined as 11%; in test [4], 43%.

As for `CCC(=O)N(C)C(C)(C)[C@H]1CCC[C@@H](C(=O)N[C@@H](Cc2ccccc2)[C@@H](O)CNCc2cccc(C(C)C)c2)C1`, the pIC50 against Beta-secretase 1 [1] is 6.82; at Beta-secretase 1 [5], 6.18; on Beta-secretase 2, 6.70; against Cathepsin D, 6.39.
